The data set has as its system Tetrahymena pyriformis. The data set can be described thus: 48 h IGC50 (-log10 mol/L); higher = more toxic.
For the compound `C=CC(=O)CCCCC`, the “48 h IGC50 (-log10 mol/L)” value was found to be 4.92.

For `CCCCCCc1ccc(O)cc1O`, the “48 h IGC50 (-log10 mol/L)” value was determined as 4.8.

Take `CCCCC(=O)Cl`: the “48 h IGC50 (-log10 mol/L)” value was determined as 2.65.

`C=CC(O)CC` (centres undefined): the “48 h IGC50 (-log10 mol/L)” value is 1.65.

For `O=Cc1ccc2c(c1)Cc1ccccc1-2`, the “48 h IGC50 (-log10 mol/L)” value is 4.5.

As to `Clc1ccc(Br)s1`, the “48 h IGC50 (-log10 mol/L)” value was 3.75.

Turning to `N#C/C=C/c1ccco1`, the “48 h IGC50 (-log10 mol/L)” value stood at 2.69.

Take `CCc1ccc([N+](=O)[O-])cc1`: the “48 h IGC50 (-log10 mol/L)” value amounted to 3.43.

In the case of `N#Cc1ccccc1C(N)=O`, the “48 h IGC50 (-log10 mol/L)” value is 2.68.

Regarding `O=C(CBr)c1ccc2ccc3cccc4ccc1c2c34`, the “48 h IGC50 (-log10 mol/L)” value worked out at 5.39.

On to `CCCCCC#CC(=O)O`, for which the “48 h IGC50 (-log10 mol/L)” value amounted to 2.94.

With `CCN(CC)C(C)=O`, the “48 h IGC50 (-log10 mol/L)” value turned out to be 1.46.

Consider `COc1cc(CCO)ccc1O`, for which the “48 h IGC50 (-log10 mol/L)” value was 2.82.

`O=C(O)CCCCCCCCCCC(=O)O`: the “48 h IGC50 (-log10 mol/L)” value worked out at 2.91.

In the case of `C#CC(C)(C)N`, the “48 h IGC50 (-log10 mol/L)” value came out at 2.09.

For `Oc1ccc(O)c(-c2ccccc2)c1`, the “48 h IGC50 (-log10 mol/L)” value is 5.01.

Take `O=C(O)c1ccccc1Br`: the “48 h IGC50 (-log10 mol/L)” value stood at 2.53.

With `CC(C)(Br)C(=O)C(C)(C)Br`, the “48 h IGC50 (-log10 mol/L)” value was 3.51.

With `CCCNC(N)=S`, the “48 h IGC50 (-log10 mol/L)” value came out at 2.31.

`CCCSc1ccccc1`: the “48 h IGC50 (-log10 mol/L)” value came out at 3.86.

Take `N#Cc1ccccc1C#N`: the “48 h IGC50 (-log10 mol/L)” value amounted to 2.66.

With `C=COC(=O)C(=C)C`, the “48 h IGC50 (-log10 mol/L)” value is 2.38.

As to `CC=C(C)C(=O)OCC`, the “48 h IGC50 (-log10 mol/L)” value turned out to be 2.5.

`CCN(CC)CCO`: the “48 h IGC50 (-log10 mol/L)” value was 1.5.

Regarding `O=[N+]([O-])c1cc(Cl)c(Cl)c(Cl)c1Cl`, the “48 h IGC50 (-log10 mol/L)” value amounted to 4.78.

For `CCCI`, the “48 h IGC50 (-log10 mol/L)” value stood at 2.61.

Consider `O=[N+]([O-])c1cc(F)ccc1O`, for which the “48 h IGC50 (-log10 mol/L)” value is 4.38.

Consider `CC/C=C/C(=O)O`, for which the “48 h IGC50 (-log10 mol/L)” value is 2.72.

On to `COC(=O)CCCCCCCCC(=O)OC`, for which the “48 h IGC50 (-log10 mol/L)” value is 4.01.

In the case of `Cc1cc(=O)[nH]cc1[N+](=O)[O-]`, the “48 h IGC50 (-log10 mol/L)” value amounted to 2.83.

With `OCc1ccccc1-c1ccccc1`, the “48 h IGC50 (-log10 mol/L)” value worked out at 3.82.

Regarding `NC(=O)c1ccc(N)cc1`, the “48 h IGC50 (-log10 mol/L)” value came to 2.09.

As for `O=C(CBr)Nc1cc([N+](=O)[O-])ccc1O`, the “48 h IGC50 (-log10 mol/L)” value worked out at 3.87.

As to `CCCCCCC/C=C/C=O`, the “48 h IGC50 (-log10 mol/L)” value was determined as 4.85.

In the case of `CCCCC/C=C/C(=O)OC`, the “48 h IGC50 (-log10 mol/L)” value is 3.77.

Regarding `CCCOC(=O)/C=C/c1ccccc1`, the “48 h IGC50 (-log10 mol/L)” value turned out to be 4.23.

Take `OCCCCCc1ccccc1`: the “48 h IGC50 (-log10 mol/L)” value was found to be 3.42.

Regarding `Nc1ccc([N+](=O)[O-])cn1`, the “48 h IGC50 (-log10 mol/L)” value is 3.22.

With `OCCCCCCCCCl`, the “48 h IGC50 (-log10 mol/L)” value stood at 3.49.

On to `CC(C)(O)Cc1ccccc1`, for which the “48 h IGC50 (-log10 mol/L)” value is 2.59.

Consider `CCOC(=O)C(C)Br` (centres undefined), for which the “48 h IGC50 (-log10 mol/L)” value worked out at 4.06.

On to `COc1cccc(Cl)c1`, for which the “48 h IGC50 (-log10 mol/L)” value was determined as 3.29.

For `CC1=CCCC1=O`, the “48 h IGC50 (-log10 mol/L)” value was 2.17.

For the compound `CCCCOc1ccc([N+](=O)[O-])cc1`, the “48 h IGC50 (-log10 mol/L)” value worked out at 4.42.

Take `CCCCCC(O)CC` (centres undefined): the “48 h IGC50 (-log10 mol/L)” value was determined as 2.94.

For `N#Cc1ccccc1Cl`, the “48 h IGC50 (-log10 mol/L)” value is 3.28.

Regarding `C/C=C/CC(=O)OC`, the “48 h IGC50 (-log10 mol/L)” value was 2.72.

Consider `COc1cc(C=O)ccc1O`, for which the “48 h IGC50 (-log10 mol/L)” value came to 2.97.

Turning to `O=C1CCC(=O)CC1`, the “48 h IGC50 (-log10 mol/L)” value came out at 1.33.

In the case of `CN(C)Cc1ccccc1`, the “48 h IGC50 (-log10 mol/L)” value was 3.12.

As to `O=C1C=CC(=O)c2c(O)ccc(O)c21`, the “48 h IGC50 (-log10 mol/L)” value was determined as 5.83.

As to `CC(C)(CO)CBr`, the “48 h IGC50 (-log10 mol/L)” value was found to be 2.54.

On to `NC(=O)Oc1ccccc1`, for which the “48 h IGC50 (-log10 mol/L)” value was 2.61.

As to `O=C(O)CCCC(=O)O`, the “48 h IGC50 (-log10 mol/L)” value was found to be 2.36.

(Values after EPA's aquatic toxicity sets.)
